Laboratory results: US4883863A, “Tripeptide derivatives and antiplasmin agents containing the same” (Nitto Boseki Co., Ltd., priority 1987, dated 1989)
Counter-ions that a name gives are not always drawn. Where a SMILES comes first, the peptide text is derived from it. [ ]: non-standard residue; d: D form. The star is where a group is joined. Tos = Cc1ccc(S(=O)(=O)*)cc1; Moc = COC(=O)*; For = O=C*

Legend:
Assay type in all cases: biochemical
human plasma kallikrein = target: T1, human plasma kallikrein (Homo sapiens, UniProt P03952); assay: Kallikrein-inhibiting activity, synthetic substrate S-2302; conditions: Table 4; S-2302, pH 8.0, 37° C.
T1 construct: purchased Kabi Co., Ltd
T1 sequence (P03952 391-638 limits assumed): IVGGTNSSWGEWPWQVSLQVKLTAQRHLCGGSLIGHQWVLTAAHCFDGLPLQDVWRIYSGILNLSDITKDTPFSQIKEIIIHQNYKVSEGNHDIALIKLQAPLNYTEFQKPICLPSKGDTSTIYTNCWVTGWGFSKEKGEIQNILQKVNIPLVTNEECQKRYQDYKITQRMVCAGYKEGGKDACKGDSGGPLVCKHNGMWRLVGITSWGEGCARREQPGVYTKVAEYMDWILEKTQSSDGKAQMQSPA
T1 sequence (P03952 20-390 partner limits assumed): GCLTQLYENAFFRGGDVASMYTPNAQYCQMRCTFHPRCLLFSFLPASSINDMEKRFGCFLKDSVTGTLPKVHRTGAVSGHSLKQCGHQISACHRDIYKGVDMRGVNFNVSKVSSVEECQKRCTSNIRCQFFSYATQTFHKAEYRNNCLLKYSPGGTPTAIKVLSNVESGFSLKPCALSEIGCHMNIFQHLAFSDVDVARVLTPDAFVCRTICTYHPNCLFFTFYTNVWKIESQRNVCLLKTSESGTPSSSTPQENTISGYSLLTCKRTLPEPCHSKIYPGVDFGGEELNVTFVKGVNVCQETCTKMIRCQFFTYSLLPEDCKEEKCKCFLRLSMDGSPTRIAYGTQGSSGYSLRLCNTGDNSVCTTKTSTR
Text: (§1) Synthetic substrates used for testing the inhibitory activity of the inhibitors on decomposition of substrates by the enzymes were as follows. For plasmin, PS-994 (H--D--Lys(Tos)--Phe--Lys--CHA·2HCl, mfd. by NITTO BOSEKI Co., Ltd.) was used; for thrombin and trypsin, PS-915 (H--D--Phe--Pro--Arg--CHA·2HCl, mfd. by NITTO BOSEKI Co., Ltd.); for Factor Xa, PS-2000 (Z--D--Lys--(HCO)--Gly--Arg--CHA·HCl, mfd. by NITTO BOSEKI Co., Ltd.); and for kallikrein, S-2302 (H--D--Pro--Phe--Arg--pNA, mfd., by Kabi Co., Ltd.).
(§2) As plasmin, standard plasmin of Sankyo Color Test α2 -D1 Kit was used in an amount of 0.3CU/ml. As thrombin, that of Sankyo Color Test ATIII kit was used in an amount of 1.2 NIHU/ml. As trypsin, that of cord 3703 of Worthington was used in an amount of 2 μg/ml. As human Factor Xa, that of Boehringer Manheim Co., Ltd. was used in an amount of 0.25 U/ml. As human plasma kallikrein, that of Kabi Co., Ltd. was used in an amount of 0.12 U/ml. As terminating color reagents, those for Sankyo Color Test Kit were used. The reactions were carried out at 37° C. unless otherwise specified.
Each of aqueous solutions (0.1 ml) of the inhibitors which solutions were various in their respective concentrations was added to 0.4 ml of a buffer solution (a 150 mM aqueous sodium chloride solution containing 50 mM Tris, pH 8.0), and the resulting mixture was heated for 5 minutes. Then, 0.1 ml of a kallikrein solution [containing 0.5% bovine serum albumin (No. A8022 available from Sigma Chemical Co.)] was added, followed by incubation for 5 minutes. Subsequently, a 10 mM S-2302 aqueous solution (0.1 ml) was added. The reaction was terminated by addition of a 20% aqueous acetic acid solution. Absorbance at 405 nm was measured and IC50 was measured in the manner described above.

plasmin = plasmin (Homo sapiens, UniProt P00747); assay: Plasmin-inhibiting activity, synthetic substrate PS-994; parameters: purchased Sankyo (Color Test α2 -D1 Kit); conditions: Table 4; PS-994, pH 7.8, 37° C.
Sequence of plasmin (P00747 581-810 limits assumed, species assumed): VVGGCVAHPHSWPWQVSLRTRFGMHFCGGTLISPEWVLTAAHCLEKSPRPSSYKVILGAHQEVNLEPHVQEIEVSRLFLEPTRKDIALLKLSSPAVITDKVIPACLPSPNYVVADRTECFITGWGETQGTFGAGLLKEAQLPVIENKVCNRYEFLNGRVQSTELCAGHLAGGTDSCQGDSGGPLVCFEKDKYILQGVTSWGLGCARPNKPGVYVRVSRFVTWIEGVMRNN
Sequence of plasmin (P00747 97-580 partner limits assumed, species assumed): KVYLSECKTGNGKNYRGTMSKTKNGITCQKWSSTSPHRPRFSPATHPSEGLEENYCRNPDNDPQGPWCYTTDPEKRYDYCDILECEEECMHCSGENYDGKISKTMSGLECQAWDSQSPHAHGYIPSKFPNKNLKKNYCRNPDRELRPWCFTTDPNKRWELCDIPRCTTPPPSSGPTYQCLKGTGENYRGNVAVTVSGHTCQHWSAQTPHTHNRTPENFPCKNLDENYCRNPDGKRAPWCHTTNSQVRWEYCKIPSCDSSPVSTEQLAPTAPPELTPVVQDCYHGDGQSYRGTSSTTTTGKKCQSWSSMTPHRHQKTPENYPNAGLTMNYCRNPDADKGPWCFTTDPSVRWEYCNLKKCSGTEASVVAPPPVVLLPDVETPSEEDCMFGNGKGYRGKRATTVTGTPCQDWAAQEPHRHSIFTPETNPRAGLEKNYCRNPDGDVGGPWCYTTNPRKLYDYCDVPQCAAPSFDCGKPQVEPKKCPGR
Text: as §1, §2
Each of aqueous solutions (0.1 ml) of the inhibitors which solutions were various in their respective concentrations was added to 0.4 ml of a buffer solution (a 150 mM aqueous sodium chloride solution containing 100 mM Tris, pH 7.8), and the resulting solution was heated for 5 minutes. To this solution was added 0.2 ml of plasmin solution, followed by incubation for 5 minutes, and then 0.1 ml of a PS-994 solution (10 mM) was added, and then incubated for 5 minutes. After completion of the reaction, 2.0 ml of terminating color reagent was added, and after standing for 10 minutes, absorbance at 700 nm was measured. A concentration of the inhibitor in the reaction system at which the absorbance was one-half that obtained in the absence of the inhibitor was determined as IC50.

thrombin = target: T2, thrombin (Homo sapiens, UniProt P00734); assay: Thrombin-inhibiting activity, synthetic substrate PS-915; conditions: Table 4; PS-915, pH 8.5, 37° C.
T2 construct: purchased Sankyo (Color Test ATIII kit)
Text: as §1, §2
Each of aqueous solutions (0.1 ml) of the inhibitors which solutions were various in their respective concentrations was added to 0.4 ml of a buffer solution (a 150 mM aqueous sodium chloride solution containing 150 mM Tris, pH 8.5), and the resulting solution was heated for 5 minutes. To this solution was added 0.2 ml of thrombin solution, followed by incubation for 5 minutes. Then, 0.1 ml of a PS-915 solution (10 mM) was added, followed by incubation for 5 minutes. Thereafter, 2 ml of terminating color reagent was added. After standing for 10 minutes, absorbance at 700 nm was measured, and IC50 was determined in the manner described above.

Row | IC50 (human plasma kallikrein) [µM] | IC50 (plasmin) [µM] | IC50 (thrombin) [µM] | Compound
1 | 1 | 0.096 | > 1000 | Cc1ccc(S(=O)(=O)NCCCC[C@@H](NC=O)C(=O)N[C@@H](Cc2ccccc2)C(=O)N[C@H](C=O)CCCCN)cc1 [Compound 4, N-α-Formyl-N-ε-(p-tosyl)-D-lysyl-L-phenylalanyl-L-lysinal hydrochloride] (For-[dK](Tos)-Phe-Lys-aldehyde)
2 | 0.36 | 0.0079 | > 1000 | COC(=O)N[C@H](CCCCNS(=O)(=O)c1ccc(C)cc1)C(=O)N[C@@H](Cc1ccccc1)C(=O)N[C@H](C=O)CCCCN [Compound 2, N-α-Methoxycarbonyl-N-ε-(p-tosyl)-D-lysyl-L-phenylalanyl-L-lysinal hydrochloride] (Moc-[dK](Tos)-Phe-Lys-aldehyde)
